This is an account of results in patent US10730863B2, “Bridged bicyclic compounds as farnesoid X receptor modulators” (BRISTOL-MYERS SQUIBB COMPANY, priority 2017, dated 2020).

This assay has as its target FXR (Homo sapiens (Human), UniProt Q96RI1). Put plainly: FXR EC50 (FXR agonist activity reported with each example). The assay is classed as cell-based.

Chain of FXR (Q96RI1 262-486): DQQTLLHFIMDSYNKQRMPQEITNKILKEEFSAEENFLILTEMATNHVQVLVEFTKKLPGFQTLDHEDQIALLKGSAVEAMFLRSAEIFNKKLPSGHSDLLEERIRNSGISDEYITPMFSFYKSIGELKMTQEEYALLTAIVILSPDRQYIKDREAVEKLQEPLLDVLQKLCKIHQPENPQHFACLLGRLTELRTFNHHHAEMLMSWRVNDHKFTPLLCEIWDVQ

Compound `COc1ccc(-c2noc(C34CCC(/C=C/c5c(-c6c(Cl)cncc6Cl)noc5C5CC5)(CC3)CC4)n2)cc1C(=O)NS(C)(=O)=O` [Example 438, (E)-5-(5-(4-(2-(5-cyclopropyl-3-(3,5-dichloropyridin-4-yl)isoxazol-4-yl)vinyl)bicyclo[2.2.2]octan-1-yl)-1,2,4-oxadiazol-3-yl)-2-methoxy-N-(methylsulfonyl)benzamide] registered an EC50 of 33 nM.

In the case of `Cc1nc(C23CCC(/C=C/c4c(-c5c(Cl)cncc5Cl)noc4C4CC4)(CC2)CC3)sc1C(=O)O` [Example 509, (E)-2-(4-(2-(5-cyclopropyl-3-(3,5-dichloropyridin-4-yl)isoxazol-4-yl)vinyl)bicyclo[2.2.2]octan-1-yl)-4-methylthiazole-5-carboxylic acid], the EC50 was found to be 40 nM.

With `O=C(O)c1cccc2nc(C34CCC(C=Cc5c(-c6c(Cl)cccc6Cl)noc5C5CC5)(CC3)CC4)sc12` [Example 184], the EC50 is 20 nM.

On to `CC(C)(C#N)c1ccc(C23CCC(/C=C/c4c(-c5c(Cl)cncc5Cl)noc4C4CC4)(CC2)CO3)cc1` [Example 475, (E)-2-(4-(4-(2-(5-cyclopropyl-3-(3,5-dichloropyridin-4-yl)isoxazol-4-yl)vinyl)-2-oxabicyclo[2.2.2]octan-1-yl)phenyl)-2-methylpropanenitrile], for which the EC50 came out at 1500 nM.

For `O=C(O)c1ccc(C2CC2)c2nc(C34CCC(OCc5c(-c6c(Cl)cncc6Cl)noc5C5CC5)(CC3)CC4)ccc12` [Example 385, 8-cyclopropyl-2-(4-((5-cyclopropyl-3-(3,5-dichloropyridin-4-yl)isoxazol-4-yl)methoxy)bicyclo[2.2.2]octan-1-yl)quinoline-5-carboxylic acid], the EC50 stood at 13 nM.

As to `COc1cc(C(=O)O)nc2ccc(C#CC34CCC(OCc5c(-c6c(Cl)cncc6Cl)noc5C5CC5)(CC3)CC4)cc12` [Example 375], the EC50 came out at 57 nM.

With `COc1ccc(-c2noc(C34CCC(OCc5c(-c6ccccc6OC(F)(F)F)noc5C5CC5)(CC3)CC4)n2)cc1C(=O)O` [Example 4, 5-(5-(4-((5-cyclopropyl-3-(2-(trifluoromethoxy)phenyl)isoxazol-4-yl)methoxy)bicyclo[2.2.2]octan-1-yl)-1,2,4-oxadiazol-3-yl)-2-methoxybenzoic acid], it took 110 nM to reach a half-maximal effect (EC50).

`O=C(O)c1cc(-c2noc(C34CCC(OCc5c(-c6c(Cl)cccc6Cl)noc5C5CC5)(CC3)CC4)n2)ccc1F` [Example 64, 5-(5-(4-((5-Cyclopropyl-3-(2,6-dichlorophenyl)isoxazol-4-yl)methoxy)bicyclo[2.2.2]octan-1-yl)-1,2,4-oxadiazol-3-yl)-2-fluorobenzoic acid] gave an EC50 of 140 nM.

`O=C(O)c1cc(OC(F)F)c2cc(OCC34CCC(/C=C/c5c(-c6c(Cl)cncc6Cl)noc5C5CC5)(CC3)CO4)ccc2n1` [Example 498, (E)-6-((4-(2-(5-cyclopropyl-3-(3,5-dichloropyridin-4-yl)isoxazol-4-yl)vinyl)-2-oxabicyclo[2.2.2]octan-1-yl)methoxy)-4-(difluoromethoxy)quinoline-2-carboxylic acid] showed an EC50 of 250 nM.

In the case of `O=C(O)c1ccc(OCC23CCC(OCc4c(-c5c(Cl)cncc5Cl)noc4C4CC4)(CC2)CC3)cn1` [Example 319], the response was half-maximal at 270 nM (EC50).

In turn, `COC(=O)c1cccc(-c2noc(C34CCC(OCc5c(-c6ccccc6C(F)(F)F)noc5C5CC5)(CC3)CC4)n2)c1` [Example 36] displayed an EC50 of 3500 nM.

`COc1ccc(-c2noc(C34CCC(/C=C/c5c(-c6c(Cl)cncc6Cl)noc5C5CC5)(CC3)CC4)n2)cc1C(=O)NS(=O)(=O)C1CC1` [Example 439, (E)-5-(5-(4-(2-(5-cyclopropyl-3-(3,5-dichloropyridin-4-yl)isoxazol-4-yl)vinyl)bicyclo[2.2.2]octan-1-yl)-1,2,4-oxadiazol-3-yl)-N-(cyclopropylsulfonyl)-2-methoxybenzamide] showed an EC50 of 280 nM.

Consider `O=C(O)c1cc(-c2noc(C34CCC(OCc5c(-c6ccccc6OC(F)(F)F)noc5C5CC5)(CC3)CC4)n2)ccn1` [Example 49], for which the concentration giving a half-maximal response (EC50) is 1200 nM.

`COc1cc(C(=O)N(C)C)nc2ccc(C#CC34CCC(OCc5c(-c6c(Cl)cncc6Cl)noc5C5CC5)(CC3)CC4)cc12` [Example 522, 6-((4-((5-cyclopropyl-3-(3,5-dichloropyridin-4-yl)isoxazol-4-yl)methoxy)bicyclo[2.2.2]octan-1-yl)ethynyl)-4-methoxy-N,N-dimethylquinoline-2-carboxamide] gave an EC50 of 52 nM.

Take `O=C(O)c1cccc(OCC23CCC(OCc4c(-c5c(Cl)cncc5Cl)noc4C4CC4)(CC2)CC3)c1` [Example 91, 3-((4-((5-cyclopropyl-3-(3,5-dichloropyridin-4-yl)isoxazol-4-yl)methoxy)bicyclo[2.2.2]octan-1-yl)methoxy) benzoic acid]: the 50% effective concentration (EC50) worked out at 33 nM.

In turn, `O=C(O)c1csc(C23CCC(COCc4c(-c5c(Cl)cccc5Cl)noc4C4CC4)(CC2)CO3)n1` [Example 216] registered an EC50 of 2000 nM.

Compound `O=C(O)c1coc(C23CCC(COCc4c(-c5c(Cl)cccc5Cl)noc4C4CC4)(CC2)CC3)n1` [Example 177, 2-(4-(((5-cyclopropyl-3-(2,6-dichlorophenyl)isoxazol-4-yl)methoxy)methyl)bicyclo[2.2.2]octan-1-yl)oxazole-4-carboxylic acid] had an EC50 of 1800 nM.

As for `COc1cc(-c2noc(C34CCC(OCc5c(-c6c(Cl)cncc6Cl)noc5C5CC5)(CC3)CC4)n2)cnc1C(=O)O` [Example 265, 5-(5-(4-((5-cyclopropyl-3-(3,5-dichloropyridin-4-yl)isoxazol-4-yl)methoxy)bicyclo[2.2.2]octan-1-yl)-1,2,4-oxadiazol-3-yl)-3-methoxypicolinic acid], it took 1500 nM to reach a half-maximal effect (EC50).

`O=C(O)c1cc(-c2noc(C34CCC(COCc5c(-c6c(Cl)cncc6Cl)noc5C5CC5)(CC3)CC4)n2)cc(C(F)(F)F)c1` [Example 485, 3-(5-(4-(((5-cyclopropyl-3-(3,5-dichloropyridin-4-yl)isoxazol-4-yl)methoxy)methyl)bicyclo[2.2.2]octan-1-yl)-1,2,4-oxadiazol-3-yl)-5-(trifluoromethyl)benzoic acid]: the EC50 was determined as 380 nM.

As for `CC1(c2noc(C3CC3)c2COC23CCC(c4ccc5c(C(=O)O)cccc5n4)(CC2)CC3)CC1(F)F` (centres unmarked) [Example 425, 2-(4-((5-cyclopropyl-3-(2,2-difluoro-1-methylcyclopropyl)isoxazol-4-yl)methoxy)bicyclo[2.2.2]octan-1-yl)quinoline-5-carboxylic acid], the response was half-maximal at 3400 nM (EC50).

For the compound `O=C(O)c1ccc(OCC23CCC(OCc4c(-c5c(Cl)cncc5Cl)noc4C4CC4)(CC2)CC3)c(C(F)(F)F)c1` [Example 320], it took 410 nM to reach a half-maximal effect (EC50).

In the case of `CC(C)c1onc(-c2ccccc2OC(F)(F)F)c1COC12CCC(c3nc(-c4ccc(C(=O)O)cc4)no3)(CC1)CC2` [Example 26], a half-maximal effect (EC50) was put at 980 nM.

`CC(C)(C(N)=O)c1ccc(C23CCC(/C=C/c4c(-c5c(Cl)cncc5Cl)noc4C4CC4)(CC2)CO3)cc1` [Example 481, (E)-2-(4-(4-(2-(5-cyclopropyl-3-(3,5-dichloropyridin-4-yl)isoxazol-4-yl)vinyl)-2-oxabicyclo[2.2.2]octan-1-yl)phenyl)-2-methylpropanamide]: the EC50 is 510 nM.

On to `O=C(O)c1cccc(-c2nc(C34CCC(OCc5c(-c6ccccc6C(F)(F)F)noc5C5CC5)(CC3)CC4)no2)n1` [Example 23, 6-(3-(4-((5-cyclopropyl-3-(2-(trifluoromethyl)phenyl)isoxazol-4-yl)methoxy)bicyclo[2.2.2]octan-1-yl)-1,2,4-oxadiazol-5-yl)picolinic acid], for which the EC50 stood at 2800 nM.

The compound `O=C(O)c1cccc(-c2noc(C34CCC(/C=C\c5c(-c6c(Cl)cccc6Cl)noc5C5CC5)(CC3)CC4)n2)c1` [Example 163, (Z)-3-(5-(4-(2-(5-cyclopropyl-3-(2,6-dichlorophenyl)isoxazol-4-yl)vinyl)bicyclo[2.2.2]octan-1-yl)-1,2,4-oxadiazol-3-yl)benzoic acid] gave an EC50 of 211 nM.

For the compound `COc1cc(C(=O)O)cc(-c2noc(C34CCC(OCc5c(-c6c(Cl)cncc6Cl)noc5C5CC5)(CC3)CC4)n2)c1` [Example 239, 3-(5-(4-((5-cyclopropyl-3-(3,5-dichloropyridin-4-yl)isoxazol-4-yl)methoxy)bicyclo[2.2.2]octan-1-yl)-1,2,4-oxadiazol-3-yl)-5-methoxybenzoic acid], the EC50 came out at 79 nM.

As to `O=C(O)c1cccc(-c2noc(C34CCC(/C=C/c5c(-c6c(Cl)cncc6Cl)noc5C5CC5)(CC3)CC4)n2)c1` [Example 504, (E)-3-(5-(4-(2-(5-cyclopropyl-3-(3,5-dichloropyridin-4-yl)isoxazol-4-yl)vinyl)bicyclo[2.2.2]octan-1-yl)-1,2,4-oxadiazol-3-yl)benzoic acid], a half-maximal effect (EC50) was put at 33 nM.

On to `O=C(O)c1cccc(-c2noc(C34C5C6C3C3C4C5C63COCc3c(-c4c(Cl)cccc4Cl)noc3C3CC3)n2)c1` (centres unmarked) [Example 513, 3-(5-(4-(((5-cyclopropyl-3-(2,6-dichlorophenyl)isoxazol-4-yl)methoxy)methyl)cuban-1-yl)-1,2,4-oxadiazol-3-yl)benzoic acid], for which the EC50 came out at 960 nM.

In turn, `O=C(O)c1ncc(OCC23CCC(OCc4c(-c5ccccc5C(F)(F)F)noc4C4CC4)(CC2)CC3)c2ccccc12` [Example 296] displayed an EC50 of 62 nM.

`NC(=O)c1cc(C(F)(F)F)cc2nc(C34CCC(OCc5c(-c6c(Cl)cncc6Cl)noc5C5CC5)(CC3)CC4)sc12` [Example 435, 2-(4-((5-cyclopropyl-3-(3,5-dichloropyridin-4-yl)isoxazol-4-yl)methoxy)bicyclo[2.2.2]octan-1-yl)-5-(trifluoromethyl)benzo[d]thiazole-7-carboxamide] came in with an EC50 of 460 nM.

Consider `O=C(O)c1ccc(-c2nc(C34CCC(OCc5c(-c6ccccc6OC(F)(F)F)noc5C5CC5)(CC3)CC4)no2)cc1` [Example 57], for which the EC50 came to 650 nM.

In turn, `CC(C)(C(N)=O)c1ccc(C23CCC(/C=C/c4c(-c5ccccc5C(F)(F)F)noc4C4CC4)(CC2)CO3)cc1` [Example 480, (E)-2-(4-(4-(2-(5-cyclopropyl-3-(2-(trifluoromethyl)phenyl)isoxazol-4-yl)vinyl)-2-oxabicyclo[2.2.2]octan-1-yl)phenyl)-2-methylpropanamide] registered an EC50 of 1000 nM.

Broadly, the EC50 is the concentration that produces a half-maximal response. The low end stands for an effect from little substance, the high end for a need for much substance.
